Patent EP1228058B1, “BENZOPYRANYL GUANIDINE DERIVATIVES, PROCESS FOR PREPARATION THEREOF, AND PHARMACEUTICAL COMPOSITIONS CONTAINING THEM” (Dongbu Hannong Chemical Co., Ltd., priority 1999, dated 2001)

Experiments:
diabetic rats [1] = experiment: Nociceptive test (hot plate test) in diabetic rats; assay type: in vivo; conditions: 50 °C hot plate
Experimental: Effects on nociceptive responses of test compounds in rats were examined using hot plate. The same methods were applied for the induction of diabetes and treatment of test compound in rats. Rats were placed onto 50 °C hot plate, then latencies of nociceptive action such as licking were determined. The recovery (%) of nociceptive responses in diabetic rats was calculated according to the following mathematical […]. [Mathematical formula 5] Recovery(%) =(Response in treated group - Response in diabetic control)/(Response in normal control-Response in diabetic control)x100 [formula]

diabetic rats [2] = experiment: Effects on MNCV (motor nerve conduction velocity) in diabetic rats; assay type: in vivo; conditions: MNCV; 100 mg/Kg, orally once a day, diabetic rats
Experimental: Diabetes was induced with i.p. (intra peritoneum) injection of streptozocin (65 mg/Kg) in rats, then test compounds dissolved in 2 ml of media (physiological saline: ethanol: tween 80 = 8:1:1), were orally administered once a day. Rats were anesthetized with halothane, then the sciatic nerve was exposed to measure MNCV. The nerve was stimulated at two points. The first stimulus electrode was inserted at proximal end, and second stimulating electrode was inserted at the sciatic notch. The coaxial needle electrode was inserted into interdigital muscle, then the muscle action potential induced by two point stimulation. The conduction velocity was calculated by dividing the distance between two stimulus points by the latency difference. Lipoic acid (100 mg/Kg) was used in comparison with the compound of formula 1 in recovery of impaired MNCV in diabetic rats. The recovery (%) of MNCV was calculated according to the following mathematical formula 4. [Mathematical formula 4] Recovery(%) =(MNCV of treated group - MNCV of diabetic rats)/(MNCV of normal control-MNCV of diabetic rats)x100 [formula]

A7r5 [3] = experiment: Inhibition of intracellular ROS induced by H2O2 (H2DCFDA) in A7r5; assay type: cell-based; conditions: Rattus norvegicus
Experimental: (§1) Measurement of intracellular ROS (Reactive Oxygen Species) was determined using H2DCFDA (2',7'-dichlorodihydrofluorescein diacetate, Molecular Probes, Eugene, OR, USA). H2DCFDA is a non-polar compound that readily diffused into cells, where it is hydrolyzed by intracellular esterase to polar derivative H2DCF (2',7'-dichlorodihydrofluorescein) which can not cross the cell membrane, and thereby trapped within the cell. H2DCF is low-fluorescent, but converted to high-fluorescent DCF (2',7'-dichlorofluorescein) by intracellular ROS. Therefore, the intracellular ROS formation can be determined from the amount of converted DCF. HUVEC (Human umbilical Vascular Endothelial Cells) or A7r5 (Rat thoracic aorta smooth muscle cells) were used. HUVEC were cultured in Kaighn's F12K medium supplemented with 10% heat-inactivated FBS, 0.1 mg/ml heparin sodium, 0.03-0.05 mg/ml ECGS (Endothelial cell growth supplement) and 1% antibiotics, and A7r5 were cultured in DMEM supplemented with 10% heat inactivated FBS and 1% antibiotics. To measure the intracellular ROS, HUVEC or A7r5 were preincubated for 30 min in the presence of test compounds (10^-7-10^-5 M). Thereafter, cells were stimulated with H2O2 (10^-6 and 10^-5 M for 20 min), and then incubated in the dark for 2 hr at 37 °C in 50 mM phosphate buffer (pH 7.4) containing 5 uM H2DCFDA. The quantity of DCF fluorescence (485 nm excitation, 530 nm emission) was measured using Fluorescence plate reader (FL600, Biotek Instruments).

[4] = test system: angiogenesis induced by Angiotensin II in Sprague-Dawley rats; experiment: Suppression of Angiotensin II induced angiogenesis in implanted sponge (99mTc-DTPA clearance); assay type: in vivo; conditions: Control AII (100nmol) alone, no test drug
HUVEC = experiment: Inhibition of intracellular ROS induced by H2O2 (H2DCFDA) in HUVEC; assay type: cell-based, Human
Experimental: as §1

A7r5 [5] = experiment: Inhibition of A7r5 mediated LDL oxidation (MDA); assay type: cell-based, rat; conditions: for % Inhibition LDL + H2O2 (10^-7M): A7r5 plus H2O2 (10^-7 M); for % Inhibition LDL: A7r5 alone, LDL 100 ug/ml, 24 hr
Experimental: A7r5 (ATCC CRL-1444, smooth muscles, thoracic aorta, BDIX rat) cells were cultured in 24 well plates, using the medium of DMEM (Dulbecco's modified Eagle's Medium) supplemented with 10% heat-inactivated FBS (fetal bovine serum) and 1% antibiotics. Confluent A7r5 from plates were washed with phosphate-buffered solution, and DMEM with 10% FBS and 1% antibiotics was added in a total volume of 0.5 ml/well. Cells (2 x 10^5 cells/ml) were preincubated without and with either test compounds (10^-6 - 10^-4 M) or Tocopherol (10^-6 - 10^-4 M) at 37 °C for 30 min. Then, A7r5 alone or A7r5 plus H2O2 (10^-7 M) were exposed to LDL (100 ug/ml) for 24 hr.
The inhibitory effect of the test compounds against the lipid peroxidation was evaluated by calculating MDA reduction rate of the test compounds compared with that of the control group same as the above example 5 (2).

[6] = ORAC (oxygen-radical absorbance capacity) assay; assay type: biochemical; conditions: 1 ORAC unit = net protection by 1 uM Trolox
Experimental: The method utilized β-PE (β-phycoerythrin) as an indicator protein, and AAPH (2,2'-azobis(2-amidinopropane) dihydrochloride) as a peroxy radical generator. Reaction mixtures consisted of test compounds (10^-6M and 10^-4M), β-PE (1.76 x 10^-8M), and AAPH (3 x 10^-3 M) in 75 mM phosphate buffer (pH 7.0). A final volume of 2 ml was used in 24 well plates. Test compounds were first dissolved in acetone and then added to the reaction mixture. Once AAPH was added, the reaction was initiated at 37 °C and the fluorescence (485 nm excitation, 590 nm emission) was measured every 5 min using Fluorescence reader (FL600, Biotek Instrument). The ORAC units were calculated based on the area under the fluorescence curve of β-PE in the presence of the test compound compared to the area generated by 1 uM Trolox. 1 ORAC unit represents the net protection provided by 1 uM Trolox.

Human LDL = experiment: Inhibition of copper-induced LDL oxidation (MDA, TBA method); assay type: biochemical; conditions: CuSO4 10 uM, 18 hr
Experimental: Human LDL (sigma) was dissolved in distilled water at a concentration of 1 mg/ml. LDL was dialyzed against three changes of phosphate-buffered solution before oxidation to remove EDTA (ethylenediamine tetraacetate) at 4 °C for 18 hr. EDTA-free LDL (100 ug LDL protein/ml) was incubated in EDTA-free phosphate-buffered solution at 37 °C for 18 hr in the presence of CuSO4 (10 uM) under pretreatment with the test compounds or tochopherol of which final concentrations were 10^-9, 10^-7, and 10^-5 M. Blank was incubated without CuSO^., and vehicle was used as a solvent group. Oxidation was stopped at 4 °C by addition of EDTA (200 uM).
Copper (Cu^+2) facilitates the oxidation of LDL to produce malondialdehyde (MDA), thus the lipid peroxidation was determined by MDA quantification same as the above example 5 (1). The MDA quantification was estimated by reacting samples with 2-thiobarbituric acid (TBA) and measuring the absorbance at 530 nm. 1,1,3,3-Tetramethoxy propane (Sigma) was used as a standard agent, and calculated the quantity of MDA as nmol of MDA equivalents per mg protein. The inhibitory effect of the test compounds against the lipid peroxidation was evaluated by calculating MDA reduction rate of the test compounds compared with that of the control group.

O=C(O)CCCCC1CCSS1 (centres unmarked) [Lipoic acid, reference compound]
Nociceptive response (diabetic rats [1]; latency of licking): 4.371 s
Recovery (%) (diabetic rats [1]; nociceptive responses): 60.2%
Recovery (%) (diabetic rats [2]): 136.6%

CC(C)(Sc1cc(C(C)(C)C)c(O)c(C(C)(C)C)c1)Sc1cc(C(C)(C)C)c(O)c(C(C)(C)C)c1 [Probucol, reference compound]
inhibition at 10 µM (A7r5 [3]; A7r5, Conc. 10^-5 M, read-out: Inhibition (%) H2O2 (10^-6M)): 185%
inhibition at 1 µM (A7r5 [3]; A7r5, Conc. 10^-6 M): 184%
inhibition at 0.1 µM (A7r5 [3]; A7r5, Conc. 10^-7 M, read-out: Inhibition (%) H2O2 (10^-6M)): 72%

Angiotensin II [AII, reference compound]
Clearance of ^99mTC (%) [4]: 44.71%

Tocopherol [reference compound]
Inhibition (%) H2O2 (10^-5M) (HUVEC; Conc. 10^-5 M): 51.0%
Inhibition (%) H2O2 (10^-6M) (HUVEC; Conc. 10^-5 M): 60.8%
Inhibition (%) H2O2 (10^-5M) (HUVEC; Conc. 10^-6 M): 30.7%
Inhibition (%) H2O2 (10^-6M) (HUVEC; Conc. 10^-6 M): 43.2%
Inhibition (%) H2O2 (10^-5M) (HUVEC; Conc. 10^-7 M): 8.8%
Inhibition (%) H2O2 (10^-6M) (HUVEC; Conc. 10^-7 M): 13.8%
% Inhibition LDL + H2O2 (10^-7M) (A7r5 [5]; 10^-4 M): 63.9%
% Inhibition LDL (A7r5 [5]; 10^-5 M): 57.0%
% Inhibition LDL + H2O2 (10^-7M) (A7r5 [5]; 10^-5 M): 53.0%
% Inhibition LDL (A7r5 [5]; 10^-6 M): 41.1%
% Inhibition LDL + H2O2 (10^-7M) (A7r5 [5]; 10^-6 M): 43.2%
ORAC units ([6]; Conc. 10^-4 M): 1.568 ORAC units
ORAC units ([6]; Conc. 10^-6 M): 1.0 ORAC units
% Inhibition (Human LDL; 10^-5 M): 29.7%
% Inhibition (Human LDL; 10^-7 M, 0.1 µM): 21.3%
% Inhibition (Human LDL; 10^-9 M, 0.001 µM): 18.5%
